Assay results from patent publication US20230106880A1, “INHIBITORS OF HUMAN IMMUNODEFICIENCY VIRUS REPLICATION” (VIIV HEALTHCARE UK (NO.5) LIMITED, priority 2020, published 2023).

How the values were obtained:
[1] = test system: recombinant NL4-3 virus (Renilla luciferase) in MT-2 cells; test: HIV cell culture assay (antiviral, luciferase readout in infected MT-2 cells); assay type: cell-based; settings: NL43
Procedure: HIV cell culture assay—MT-2 cells, 293T cells and the proviral DNA clone of NL4-3 virus were obtained from the NIH AIDS Research and Reference Reagent Program. MT-2 cells were propagated in RPMI 1640 media supplemented with 10% heat inactivated fetal bovine serum (FBS), […]. The 293T cells were propagated in DMEM media supplemented with 10% heat inactivated FBS, […]. A recombinant NL4-3 proviral clone, in which a section of the nef gene was replaced with the Renilla luciferase gene, was used to make the reference virus used in these studies. The recombinant virus was prepared through transfection of the recombinant NL4-3 proviral clone into 293T cells using Transit-293 Transfection Reagent from Mirus Bio LLC (Madison, Wis.). Supernatent was harvested after 2-3 days and the amount of virus present was titered in MT-2 cells using luciferase enzyme activity as a marker by measuring luciferase enzyme activity. Luciferase was quantitated using the EnduRen Live Cell Substrate from Promega (Madison, Wis.). Antiviral activities of compounds toward the recombinant virus were quantified by measuring luciferase activity in MT-2 cells infected for 4-5 days with the recombinant virus in the presence of serial dilutions of the compound.
The 50% effective concentration (EC50) was calculated by using the exponential form of the median effect equation where (Fa)=1/[1+(ED50/drug conc.)m] (Johnson V A, Byington R T. Infectivity Assay. In Techniques in HIV Research. ed. Aldovini A, Walker B D. 71-76. New York: Stockton Press. 1990). The 50% inhibitory concentration (EC50) was calculated by using the exponential form of the median effect equation where percent inhibition=1/[1+(EC50/drug concentration)m], where m is a parameter that reflects the slope of the concentration-response curve.

[2] = Compound cytotoxicity, XTT-based colorimetric assay in uninfected MT2 cells; assay type: cell-based; settings: human, day 4, XTT assay
Procedure: Compound cytotoxicity and the corresponding CC50 values were determined using the same protocol as described in the antiviral assay except that uninfected cells were used. Cytotoxicity was assessed on day 4 in uninfected MT2 cells by using an XTT (2,3-bis[2-Methoxy-4-nitro-5-sulfophenyl]-2H-tetrazolium-5-carboxyanilide inner salt)-based colorimetric assay (Sigma-Aldrich, St Louis, Mo.).

Structure (SMILES)	EC50 [1] [nM]	CC50 at 4 day [2] [nM]
Cn1nc(NS(C)(=O)=O)c2c(Cl)ccc(-n3c([C@H](Cc4cc(F)cc(F)c4)NC(=O)Cn4nc(C5CC5)c5c4C(F)(F)[C@@H]4C[C@H]54)nc4nc(OCCC(C)(F)F)ccc4c3=O)c21 (atropisomer, axis not shown; (P)) [Example 1, N—((S)-1-((3P)-3-(4-chloro-1-methyl-3-(methylsulfonamido)-1H-indazol-7-yl)-7-(3,3-difluorobutoxy)-4-oxo-3,4-dihydropyrido[2,3-d]pyrimidin-2-yl)-2-(3,5-difluorophenyl)ethyl)-2-((3bS,4aR)-3-cyclopropyl-5,5-difluoro-3b,4,4a,5-tetrahydro-1H-cyclopropa[3,4]cyclopenta[1,2-c]pyrazol-1-yl)acetamide]	0.027	> 100
Cn1nc(NS(C)(=O)=O)c2c(Cl)ccc(-n3c([C@H](Cc4cc(F)cc(F)c4)NC(=O)Cn4nc(C5CC5)c5c4C(F)(F)[C@H]4C[C@@H]54)nc4nc(OCCC(C)(F)F)ccc4c3=O)c21 (atropisomer, axis not shown; (P)) [Example 2, N—((S)-1-((3P)-3-(4-chloro-1-methyl-3-(methylsulfonamido)-1H-indazol-7-yl)-7-(3,3-difluorobutoxy)-4-oxo-3,4-dihydropyrido[2,3-d]pyrimidin-2-yl)-2-(3,5-difluorophenyl)ethyl)-2-((3bR,4aS)-3-cyclopropyl-5,5-difluoro-3b,4,4a,5-tetrahydro-1H-cyclopropa[3,4]cyclopenta[1,2-c]pyrazol-1-yl)acetamide]	0.05	> 100
Cn1nc(NS(C)(=O)=O)c2c(Cl)ccc(-n3c([C@H](Cc4cc(F)cc(F)c4)NC(=O)Cn4nc(C5CC5)c5c4C(F)(F)[C@@H]4C[C@H]54)nc4nc(OCCC(F)(F)F)ccc4c3=O)c21 (atropisomer, axis not shown; (P)) [Example 3, N—((S)-1-((3P)-3-(4-chloro-1-methyl-3-(methylsulfonamido)-1H-indazol-7-yl)-4-oxo-7-(3,3,3-trifluoropropoxy)-3,4-dihydropyrido[2,3-d]pyrimidin-2-yl)-2-(3,5-difluorophenyl)ethyl)-2-((3bS,4aR)-3-cyclopropyl-5,5-difluoro-3b,4,4a,5-tetrahydro-1H-cyclopropa[3,4]cyclopenta[1,2-c]pyrazol-1-yl)acetamide]	0.014	> 100
Cn1nc(NS(C)(=O)=O)c2c(Cl)ccc(-n3c([C@H](Cc4cc(F)cc(F)c4)NC(=O)Cn4nc(C5CC5)c5c4C(F)(F)[C@H]4C[C@@H]54)nc4nc(OCCC(F)(F)F)ccc4c3=O)c21 (atropisomer, axis not shown; (P)) [Example 4, N—((S)-1-((3P)-3-(4-chloro-1-methyl-3-(methylsulfonamido)-1H-indazol-7-yl)-4-oxo-7-(3,3,3-trifluoropropoxy)-3,4-dihydropyrido[2,3-d]pyrimidin-2-yl)-2-(3,5-difluorophenyl)ethyl)-2-((3bR,4aS)-3-cyclopropyl-5,5-difluoro-3b,4,4a,5-tetrahydro-1H-cyclopropa[3,4]cyclopenta[1,2-c]pyrazol-1-yl)acetamide]	0.079	> 100
